For the test, the system named is Plasmodium berghei. The test can be described thus: Luciferase/luciferin-expressing antifolate-resistant parasites were used to infect a culture of HepG2 cells that were pre-incubated with compounds. Infected hepatocytes emit light due to the luciferase reaction. Assay results are presented as the percent inhibition of light emission compared to control. […]. Format: functional. The settings on record: sporozoite; for IC90: read-out: LUCIFERASE INFECTION ASSAY - IC90.

Where [1] appears, read: read-out: LUCIFERASE INFECTION ASSAY - IC50.

Regarding `Cc1ccc2nc(NC(=O)c3ccccc3C)c(C(=O)NCC(C)C)n2c1`, the IC90 (as a rule, the concentration needed for an effect of 90%) came out at 9 µM. The IC50 (usually the concentration that inhibits the measured activity by half) (HEPG2TOX_HILL_SLOPE 2.35, HEPG2TOX_R_SQUARED 0.51, PBLUC_HILL_SLOPE 14.9, PBLUC_R_SQUARED 0.347, read-out: LUCIFERASE INFECTION ASSAY - IC50) is 7.76 µM.

As to `CCN1C(=O)N(C2Cc3ccccc3C2)C(=O)C12CCN(Cc1cc3ccccc3[nH]1)CC2`, the IC90 is greater than 7.46 µM. The IC50 (HEPG2TOX_HILL_SLOPE 3.47, HEPG2TOX_R_SQUARED 0.984, PBLUC_HILL_SLOPE 2.65, PBLUC_R_SQUARED 0.483, read-out: LUCIFERASE INFECTION ASSAY - IC50) amounted to 3.77 µM.

For the molecule `O=S(=O)(Nc1ccc(S(=O)(=O)NC2CC2)cc1)c1cc(F)cc(F)c1`, the IC90 is greater than 10 µM. Moreover, the IC50 under setting [1] was greater than 10 µM.

For `O=C(Nc1nc2ccccn2c1C(=O)NC1CCCC1)c1c(F)cccc1F`, the IC90 is greater than 8.59 µM. Also, the concentration for half-maximal inhibition (IC50) (PBLUC_HILL_SLOPE 3.61, PBLUC_R_SQUARED 0.639, read-out: LUCIFERASE INFECTION ASSAY - IC50) was determined as 6.29 µM.

In the case of `Cc1ccc(-c2nnc(SCC(=O)Nc3ccccc3C(=O)NCc3ccccc3)[nH]2)cc1`, the 90% effect concentration (IC90) is greater than 10 µM. Under setting [1], the IC50 was greater than 10 µM.

For the molecule `C=CCN(c1ccccc1)S(=O)(=O)c1ccc(Cl)c(C(=O)Nc2ccc(N(c3ccccc3)C(C)C)cc2)c1`, the IC90 came to 8.36 µM. Moreover, the IC50 (FFLUC_HILL_SLOPE 2.09, FFLUC_R_SQUARED 0.761, HEPG2TOX_HILL_SLOPE 2.29, HEPG2TOX_R_SQUARED 0.839, PBLUC_HILL_SLOPE 16.1, PBLUC_R_SQUARED 0.248, read-out: LUCIFERASE INFECTION ASSAY - IC50) came to 7.29 µM.

With `Cc1cc(C2=NNC(=NC3CC3)SC2)c(C)n1-c1ccccn1`, the IC90 turned out to be 1.61 µM. The IC50 (FFLUC_HILL_SLOPE 1.22, FFLUC_R_SQUARED 0.875, PBLUC_HILL_SLOPE 1.09, PBLUC_R_SQUARED 0.799, read-out: LUCIFERASE INFECTION ASSAY - IC50) was 0.213 µM.

`N#Cc1ccc(-c2cnc3cnc(-c4cccc(Cl)c4)cn23)cc1`: the IC90 was greater than 9.98 µM. For the same molecule, the IC50 (PBLUC_HILL_SLOPE 4, PBLUC_R_SQUARED 0.258, read-out: LUCIFERASE INFECTION ASSAY - IC50) came out at 8.15 µM.

Turning to `c1ccc(-c2csc3ncnc(Sc4ccc5nnnn5n4)c23)cc1`, the IC90 is greater than 10 µM. Further, the half-inhibitory concentration (IC50) (HEPG2TOX_HILL_SLOPE 2.04, HEPG2TOX_R_SQUARED 0.855, PBLUC_HILL_SLOPE 0.945, PBLUC_R_SQUARED 0.512, read-out: LUCIFERASE INFECTION ASSAY - IC50) stood at 7.55 µM.

For `Oc1ccc(/C=C/c2ccc3cccc(O)c3n2)cc1Br`, the IC90 was 7.7 µM. The IC50 (PBLUC_HILL_SLOPE 43.7, PBLUC_R_SQUARED 0.404, read-out: LUCIFERASE INFECTION ASSAY - IC50) stood at 7.32 µM.

As for `COc1ccc(Cn2nc(C(=O)NC3CCCC3)c3c2CCN(Cc2ccc4c(c2)CCO4)C3)cc1`, the IC90 was greater than 6.78 µM. Also, the IC50 (PBLUC_HILL_SLOPE 3.3, PBLUC_R_SQUARED 0.745, read-out: LUCIFERASE INFECTION ASSAY - IC50) was 3.79 µM.

On to `CCCOc1c(Cl)cc(C(=O)Nc2nonc2-c2cccs2)cc1Cl`, for which the concentration for an effect of 90% (IC90) stood at 2.87 µM. Besides, the 50% inhibitory concentration (IC50) (HEPG2TOX_HILL_SLOPE 2.94, HEPG2TOX_R_SQUARED 0.74, PBLUC_HILL_SLOPE 28.4, PBLUC_R_SQUARED 0.116, read-out: LUCIFERASE INFECTION ASSAY - IC50) is 2.66 µM.

Take `CCOc1ccc(C(=O)Nc2ccc(N(CC)CC)cc2)cc1Br`: the IC90 was 3.6 µM. Moreover, the IC50 (HEPG2TOX_HILL_SLOPE 11.9, HEPG2TOX_R_SQUARED 0.281, PBLUC_HILL_SLOPE 11.4, PBLUC_R_SQUARED 0.34, read-out: LUCIFERASE INFECTION ASSAY - IC50) amounted to 2.97 µM.

`Cc1ccc(-c2nc(SCc3nc(=O)c4ccc(C(=O)O)cc4[nH]3)[nH]c2-c2ccc(C)cc2)cc1`: the IC90 was greater than 10 µM. In addition, the IC50 under setting [1] is greater than 10 µM.

Consider `Cc1ccc(-c2nc(-c3ccccc3)nc(N3CCN(C)CC3)c2C#N)cc1`, for which the IC90 is greater than 8.93 µM. The IC50 (HEPG2TOX_HILL_SLOPE 0.407, HEPG2TOX_R_SQUARED 0.712, PBLUC_HILL_SLOPE 0.491, PBLUC_R_SQUARED 0.261, read-out: LUCIFERASE INFECTION ASSAY - IC50) was greater than 8.93 µM.

`CCOC(=O)c1cc(NC(=O)Nc2ccc(Cl)c(Cl)c2)ccc1Oc1cncc(Cl)c1`: the IC90 worked out at 4.18 µM. For the same molecule, for the setting “HEPG2TOX_HILL_SLOPE 3.45, HEPG2TOX_R_SQUARED 0.989, PBLUC_HILL_SLOPE 3.28, PBLUC_R_SQUARED 0.474, read-out: LUCIFERASE INFECTION ASSAY - IC50”, the IC50 amounted to 2.14 µM.

With `Cc1nn2c(SCC(=O)O)cc(C(C)(C)C)nc2c1-c1ccc(Cl)cc1`, the IC90 is greater than 8.46 µM. Under setting [1], the IC50 is greater than 8.46 µM.

As for `C/C(CCc1ccc2c(c1)OCO2)=N\Nc1nc2ccccc2[nH]1`, the IC90 was greater than 10 µM. For the same molecule, under setting [1], the IC50 is greater than 10 µM.

Turning to `CCOc1ccccc1NC(=O)C(NCc1ccc(OC(F)F)cc1)c1ccccc1` (stereo unspecified), the IC90 amounted to 4.47 µM. Moreover, the concentration for half-maximal inhibition (IC50) (HEPG2TOX_HILL_SLOPE 2.27, HEPG2TOX_R_SQUARED 0.924, PBLUC_HILL_SLOPE 9.94, PBLUC_R_SQUARED 0.658, read-out: LUCIFERASE INFECTION ASSAY - IC50) turned out to be 3.59 µM.

Take `COC(=O)c1cc(C(=O)OCC(=O)NCCC2=CCCCC2)cc([N+](=O)[O-])c1`: the IC90 is greater than 10 µM. The IC50 under setting [1] was greater than 10 µM.

As to `Cc1[nH]ncc1CCCNc1nc(C(F)(F)F)nc2ccccc12`, the concentration for an effect of 90% (IC90) is greater than 10 µM. For the setting “FFLUC_HILL_SLOPE 6.95, FFLUC_R_SQUARED 0.127, read-out: LUCIFERASE INFECTION ASSAY - IC50”, the IC50 was greater than 10 µM.

`CCOc1cccc2c(C)nc(Nc3nc(=O)c4ccccc4[nH]3)nc12`: the concentration for an effect of 90% (IC90) was 7.27 µM. In addition, the IC50 (HEPG2TOX_HILL_SLOPE 3.19, HEPG2TOX_R_SQUARED 0.9, PBLUC_HILL_SLOPE 4.13, PBLUC_R_SQUARED 0.554, read-out: LUCIFERASE INFECTION ASSAY - IC50) was 4.27 µM.

For `COc1ccc(N(Cc2c(C#N)c(C)nn2-c2ccccc2)S(=O)(=O)c2ccc(C)cc2)cc1`, the 90% effect concentration (IC90) is greater than 10 µM. Also, the IC50 (HEPG2TOX_HILL_SLOPE 7.62, HEPG2TOX_R_SQUARED 0.552, PBLUC_HILL_SLOPE 10, PBLUC_R_SQUARED 0.432, read-out: LUCIFERASE INFECTION ASSAY - IC50) stood at 9.18 µM.

For `CSc1sc(C(N)=S)c(C)c1C(C)=O`, the IC90 was greater than 13.4 µM. Also, the IC50 under setting [1] was greater than 13.4 µM.

As to `O=C(CCN1c2ccccc2Sc2ccccc21)Nc1ccc2ccccc2c1`, the IC90 is greater than 10 µM. Under setting [1], the IC50 was greater than 10 µM.

Turning to `O=C(NCc1ccccc1)C1=CN2CCN(Cc3cccc(Cl)c3)C(=O)N=C2O1`, the IC90 was greater than 10 µM. Besides, the IC50 (FFLUC_HILL_SLOPE 9.9, FFLUC_R_SQUARED 0.0641, read-out: LUCIFERASE INFECTION ASSAY - IC50) was greater than 10 µM.

For `O=C(Nc1cccc(S(=O)(=O)NC2=NCCCCC2)c1)c1cncc(Br)c1`, the IC90 was greater than 10 µM. In addition, the IC50 under setting [1] is greater than 10 µM.

In the case of `COc1ccc(CN(CC(=O)NCCc2ccc(F)cc2)C(C)Cc2cccs2)cc1` (stereo unspecified), the IC90 is greater than 10 µM. Besides, the half-inhibitory concentration (IC50) under setting [1] was greater than 10 µM.

In the case of `CN(C)c1ccc(C(c2ccc(OC(F)(F)F)cc2)c2ccc(N(C)C)cc2)cc1`, the IC90 stood at 3.56 µM. Also, where the note is “FFLUC_HILL_SLOPE 27.2, FFLUC_R_SQUARED 0.132, HEPG2TOX_HILL_SLOPE 6.02, HEPG2TOX_R_SQUARED 0.417, PBLUC_HILL_SLOPE 10.6, PBLUC_R_SQUARED 0.521, read-out: LUCIFERASE INFECTION ASSAY - IC50”, the IC50 was found to be 2.89 µM.

On to `COc1ccc(CNC(=O)Cn2ncc(Cl)c(Cl)c2=O)cc1OC`, for which the IC90 was greater than 10 µM. Under setting [1], the IC50 was greater than 10 µM.

Take `C=c1c(Nc2cccc(C(F)(F)F)c2)cc(Nc2cccc(C(F)(F)F)c2)c(O)c1=C`: the concentration for an effect of 90% (IC90) is greater than 10 µM. Besides, the IC50 (PBLUC_HILL_SLOPE 2.41, PBLUC_R_SQUARED 0.317, read-out: LUCIFERASE INFECTION ASSAY - IC50) is 7.29 µM.

Take `CCOC(=O)c1[nH]c(C)c(C(=O)CN(C)S(=O)(=O)c2c(C)noc2C)c1C`: the IC90 came out at 3.73 µM. For the setting “PBLUC_HILL_SLOPE 16.9, PBLUC_R_SQUARED 0.509, read-out: LUCIFERASE INFECTION ASSAY - IC50”, the IC50 stood at 3.28 µM.

Regarding `COc1ccc(CNC(=O)c2ccc(C3(CNc4cccc(OC)c4)CC3)cc2)cc1`, the IC90 was greater than 10 µM. Besides, the IC50 under setting [1] is greater than 10 µM.

`COc1ccc(C(=O)/C(C#N)=N/Nc2cccc(Cl)c2Cl)cc1`: the IC90 came out at 9.32 µM. Moreover, the IC50 (HEPG2TOX_HILL_SLOPE 1.05, HEPG2TOX_R_SQUARED 0.901, PBLUC_HILL_SLOPE 1.18, PBLUC_R_SQUARED 0.493, read-out: LUCIFERASE INFECTION ASSAY - IC50) turned out to be 1.44 µM.

For `O=[N+]([O-])c1ccc(/C=[N+](\[O-])c2ccccc2)s1`, the 90% effect concentration (IC90) is greater than 13.3 µM. For the same molecule, under setting [1], the IC50 is greater than 13.3 µM.

As to `O=C(Nc1cccc([N+](=O)[O-])c1)NC1CCSc2ccc(F)cc21` (stereo unspecified), the IC90 turned out to be 4.49 µM. Besides, the IC50 under setting [1] turned out to be 3.86 µM.

Turning to `Cc1nn(-c2nc3ccccc3s2)c2c1C(c1cc(Br)c(O)c(Br)c1)C1C(=O)CCCC1=N2` (stereo unspecified), the IC90 was greater than 10 µM. The IC50 (FFLUC_HILL_SLOPE 9.07, FFLUC_R_SQUARED 0.197, PBLUC_HILL_SLOPE 1.11, PBLUC_R_SQUARED 0.592, read-out: LUCIFERASE INFECTION ASSAY - IC50) worked out at 4.69 µM.

As to `CCO/C=N\C1=C(C#N)C(c2ccc(F)cc2)c2ccc3ccccc3c2O1` (stereo unspecified), the IC90 is greater than 8.86 µM. For the same molecule, the IC50 under setting [1] is greater than 8.86 µM.

(Values after ChEMBL document CHEMBL4483862, “Open-source discovery of chemical leads for next-generation chemoprotective antimalarials” (2018).)
